Reference: ChEMBL document CHEMBL1201862, “PubChem BioAssay data set” (2004)
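Cells were grown in 96-well plates and exposed to each compound for 48 hours at five concentrations; endpoints were interpolated linearly between bracketing concentrations, or set to the highest concentration if not reached. GI50: concentration for 50% inhibition of growth.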 Active and inactive are the calls of the source. No stated cut-off is given here; in the data, active = GI50 up to about 1.1 µM and inactive = higher.

Legend:
Assay in all cases: NCI tumour cell line growth inhibition, 48 h
[1] = system: OVCAR-8
[2] = system: 786-0
[3] = system: IGROV-1
[4] = system: SN12C
[5] = system: EKVX
[6] = system: SK-MEL-2
[7] = system: HCT-116
[8] = system: A549
[9] = system: MDA-MB-435
[10] = system: SF-539
[11] = system: SW-620
[12] = system: T47D
[13] = system: ACHN
[14] = system: U-251
[15] = system: OVCAR-4
[16] = system: MOLT-4
[17] = system: LOX IMVI
[18] = system: CAKI-1
[19] = system: HCC 2998
[20] = system: NCI/ADR-RES

Compound	GI50 [1]	GI50 [2]	GI50 [3]	GI50 [4]	GI50 [5]	GI50 [6]	GI50 [7]	GI50 [8]	GI50 [9]	GI50 [10]	GI50 [11]	GI50 [12]	GI50 [13]	GI50 [14]	GI50 [15]	GI50 [16]	GI50 [17]	GI50 [18]	GI50 [19]	GI50 [20]
CSc1ccc(/C=C2\CNC/C(=C\c3ccc(SC)cc3)C2=O)cc1	52.4 µM (inactive)	29.3 µM (inactive)	> 81.7 µM (inactive)	> 139 µM (inactive)	> 170 µM (inactive)	> 194 µM (inactive)	144 µM (inactive)	> 237 µM (inactive)	> 371 µM (inactive)	18.4 µM (inactive)	> 371 µM (inactive)	> 371 µM (inactive)	120 µM (inactive)	16.9 µM (inactive)	–	–	–	–	–	–
C#CCOCn1cnc2ncnc(N)c21	> 100 µM (inactive)	> 100 µM (inactive)	> 100 µM (inactive)	> 100 µM (inactive)	> 100 µM (inactive)	> 100 µM (inactive)	> 100 µM (inactive)	> 100 µM (inactive)	–	> 100 µM (inactive)	> 100 µM (inactive)	–	> 100 µM (inactive)	> 100 µM (inactive)	> 100 µM (inactive)	> 100 µM (inactive)	> 100 µM (inactive)	> 100 µM (inactive)	> 100 µM (inactive)	–
Cc1ccn2c(=O)cc(CN3CCOCC3)nc2c1	> 100 µM (inactive)	> 100 µM (inactive)	> 100 µM (inactive)	> 100 µM (inactive)	> 100 µM (inactive)	> 100 µM (inactive)	> 100 µM (inactive)	> 100 µM (inactive)	> 100 µM (inactive)	> 100 µM (inactive)	> 100 µM (inactive)	–	> 100 µM (inactive)	> 100 µM (inactive)	> 100 µM (inactive)	> 100 µM (inactive)	> 100 µM (inactive)	> 100 µM (inactive)	> 100 µM (inactive)	> 100 µM (inactive)
NNC(=O)c1nn[nH]c1C(=O)NN	> 100 µM (inactive)	15.5 µM (inactive)	–	> 100 µM (inactive)	–	> 100 µM (inactive)	> 100 µM (inactive)	> 100 µM (inactive)	> 100 µM (inactive)	–	–	–	–	> 100 µM (inactive)	> 10 µM (inactive)	> 100 µM (inactive)	–	15.8 µM (inactive)	> 100 µM (inactive)	> 100 µM (inactive)
CC(=O)OC1(C#N)CC2OC1C1N=NN(C(=O)OC(C)(C)C)C21 (stereo not drawn)	30.3 µM (inactive)	> 100 µM (inactive)	> 31.6 µM (inactive)	39.7 µM (inactive)	55.1 µM (inactive)	11.2 µM (inactive)	10.9 µM (inactive)	> 10 µM (inactive)	–	9.75 µM (inactive)	14.6 µM (inactive)	–	> 100 µM (inactive)	> 100 µM (inactive)	28.4 µM (inactive)	34 µM (inactive)	17.2 µM (inactive)	> 31.6 µM (inactive)	> 100 µM (inactive)	–
O=C1SC(c2ccccc2)(c2ccccc2)c2ccccc21	> 100 µM (inactive)	> 100 µM (inactive)	> 100 µM (inactive)	> 100 µM (inactive)	63.5 µM (inactive)	> 100 µM (inactive)	> 100 µM (inactive)	50.9 µM (inactive)	–	> 100 µM (inactive)	71.6 µM (inactive)	–	34.3 µM (inactive)	> 100 µM (inactive)	92.5 µM (inactive)	82.8 µM (inactive)	> 100 µM (inactive)	> 100 µM (inactive)	> 100 µM (inactive)	–
O=C1C=CC(=O)c2c1ccc1c3ccccc3n(-c3ccccc3)c21	4.56 µM (inactive)	4.86 µM (inactive)	18.3 µM (inactive)	11.5 µM (inactive)	8.77 µM (inactive)	13.1 µM (inactive)	2.37 µM (inactive)	20.5 µM (inactive)	14.1 µM (inactive)	15.7 µM (inactive)	2.29 µM (inactive)	2.05 µM (inactive)	3.26 µM (inactive)	15.2 µM (inactive)	13.9 µM (inactive)	0.561 µM (active)	7.1 µM (inactive)	7.18 µM (inactive)	24.9 µM (inactive)	–
NC(=O)CNC(=O)[C@@H]1CC(OCCC(=O)O)CN1C(=O)C1CCCN1C(=O)OCc1ccccc1 (stereo partly drawn)	> 100 µM (inactive)	> 100 µM (inactive)	> 100 µM (inactive)	> 100 µM (inactive)	2.74 µM (inactive)	> 100 µM (inactive)	> 100 µM (inactive)	> 100 µM (inactive)	> 100 µM (inactive)	–	> 100 µM (inactive)	> 100 µM (inactive)	> 100 µM (inactive)	> 100 µM (inactive)	> 100 µM (inactive)	> 100 µM (inactive)	> 100 µM (inactive)	–	–	> 100 µM (inactive)
